Columns and labels:
mice = assay: In vivo predictive sedation-hypnosis test (inhibition of traveled distance); design: species or system mouse; conditions: male CD1 mice; single equimolecular intraperitoneal doses; traveled distance over 30 min after dosing (first 5 min discarded) versus control
Experimental: In vivo determination of predictive sedative-hypnotic action.
The in vivo effects of these compounds were assessed by a predictive sedation-hypnosis test in mice (D. J. Sanger et al., Eur. J. Pharmacol., 313, 35-42, 1996; and G. Griebel et al., Psychopharmacology, 146, 205-213, 1999).
Groups of 5-8 male CD1 mice, weighing 22-26 g at the time of test, were used. The test compounds were administered in single equimolecular intraperitoneal doses, suspended in 0.25% agar with one drop of Tween in a volume of 10 mL/kg. Control animals received the vehicle alone. Using a Smart System (Panlab, S. L., Spain) the traveled distance in cm is recorded for each mouse at 5-min intervals during a period of 30 minutes after dosing. The inhibition percentage of traveled distance of treated animals versus control animals (the first 5 min were discarded) was calculated.

α2-GABAA receptor = assay: Ligand-binding assay, competitive with radiolabeled flumazenil, spinal cord membranes; conditions: Affinity for α2-GABAA receptor, rat spinal cord membranes, radiolabeled flumazenil 1 nM; for % Inhibition 10^−5M: 10^-5M test compound; for % Inhibition 10^−7M: 10^-7M test compound
Experimental: (§1) Ligand-binding assays. Determination of the affinity of test compounds for α1- and α2-GABAA receptor.
(§2) Male Sprague-Dawley rats weighing 200-250 g at the time of experiment were used. After decapitation of the animal, the cerebellum (tissue that mostly contains α1-GABAA receptor) and spinal cord (tissue that mostly contains α2-GABAA receptor) were removed. The membranes were prepared according to the method by J. Lameh et al. (Prog. Neuro-Psychopharmacol. Biol. Psychiatry, 24, 979-991, 2000) and H. Noguchi et al. (Eur. J. Pharm., 434, 21-28, 2002). Once the tissues weighed, they were suspended in 50 mM Tris.HCl (pH 7.4), 1:40 (w/v), or sucrose 0.32 M in the case of spinal cord, homogenized and then centrifuged at 20,000 g for 10 min at 7° C. twice. The resulting pellet was resuspended under the same conditions and centrifuged again. The pellet was finally resuspended on a minimum volume and kept at −80° C. overnight. On the next day, the process was repeated until the final pellet was resuspended at a ratio of 1:10 (w/v) in the case of cerebellum and at a ratio of 1:5 (w/v) in the case of spinal cord.
(§3) Affinity was determined by competitive tests using radiolabeled flumazenil as ligand. The tests were performed according to the methods described by S. Arbilla et al. (Eur. J. Pharmacol., 130, 257-263, 1986); and Y. Wu et al. (Eur. J. Pharmacol., 278, 125-132, 1995) using 96-well microtiter plates. The membranes containing the study receptors, flumazenil (radiolabeling at a final concentration of 1 nM) and ascending concentrations of test compounds (in a total volume of 230 μL in 50 mM [ph 7.4] Tris.HCl buffer) were incubated. Simultaneously, the membranes were only incubated with the radiolabeled flumazenil (total binding, 100%) and in the presence of an elevated concentration of unradiolabeled flumazenil (non-specific binding, % estimation of radiolabeled ligand). The reactions started on adding the radiolabeled ligand followed by incubation for 60 minutes at 4° C. At the end of the incubation period, 200 μL of reaction were transferred to a multiscreen plate (Millipore) and filtered using a vacuum manifold and then washed three times with cold test buffer. The multiscreen plates were equipped with a GF/B filter that retained the membranes containing the receptors and the radiolabeled ligand which has been bound to the receptors. After washing, the plates were left till dry. Once dried, scintillation liquid was added and left under stirring overnight. The next day the plates were counted using a Perkin-Elmer Microbeta scintillation counter.
(§4) For analysis of the results the percentage of specific binding for every concentration of test compound was calculated as follows:
(§5) % specific binding=(X−N/T−N)×100
(§6) where, X: amount of bound ligand for every concentration of compound. T: total binding, maximum amount bound to the radiolabeled ligand. N: non-specific binding, amount of radiolabeled ligand bound in a non-specific way irrespective of the receptor used.
(§7) Every concentrations of compound were tested in triplicate and their mean values were used to determine the experimental values of % specific binding versus the concentration of compound. Affinity data are expressed as % inhibition at 10^-5M and 10^-7M concentrations.

α1-GABAA receptor = assay: Ligand-binding assay, competitive with radiolabeled flumazenil, cerebellum membranes; conditions: Affinity for α1-GABAA receptor, rat cerebellum membranes, radiolabeled flumazenil 1 nM; for % Inhibition 10^−5M: 10^-5M test compound; for % Inhibition 10^−7M: 10^-7M test compound
Experimental: as §1, §2, §3, §4, §5, §6, §7

Structure (SMILES): Cc1ccc(-c2nc3ccc(C)cn3c2CN(C)C(=O)c2ccc([N+](=O)[O-])o2)cc1 [Example 32, 5-Nitro-furan-2-carboxylic acid methyl-(6-methyl-2-p-tolyl-imidazo[1,2-a]pyridin-3-ylmethyl)-amide]
- % Inhibition Motor Activity (mice): 92.66%
- % Inhibition 10^−5M (α2-GABAA receptor): 77.5%
- % Inhibition 10^−7M (α2-GABAA receptor): 0.0%
- % Inhibition 10^−5M (α1-GABAA receptor): 98.0%
- % Inhibition 10^−7M (α1-GABAA receptor): 14.5%

Structure (SMILES): Cc1ccc(-c2nc3ccc(C)cn3c2CN(C)C(=O)c2ncc(F)cc2F)cc1 [Example 33, 3,5-Difluoro-pyridine-2-carboxylic acid methyl-(6-methyl-2-p-tolyl-imidazo[1,2-a]pyridin-3-ylmethyl)-amide]
- % Inhibition Motor Activity (mice): 35.02%
- % Inhibition 10^−5M (α2-GABAA receptor): 74.0%
- % Inhibition 10^−7M (α2-GABAA receptor): 0.0%
- % Inhibition 10^−5M (α1-GABAA receptor): 98.4%
- % Inhibition 10^−7M (α1-GABAA receptor): 37.3%

Structure (SMILES): Cc1ccc(-c2nc3ccc(C)cn3c2CN(C)C(=O)c2ccnc(Cl)c2)cc1 [Example 34, 2-Chloro-N-methyl-N-(6-methyl-2-p-tolyl-imidazo[1,2-a]pyridin-3-ylmethyl)-isonicotinamide]
- % Inhibition Motor Activity (mice): 92.98%
- % Inhibition 10^−5M (α2-GABAA receptor): 85.0%
- % Inhibition 10^−7M (α2-GABAA receptor): 0.0%
- % Inhibition 10^−5M (α1-GABAA receptor): 98.8%
- % Inhibition 10^−7M (α1-GABAA receptor): 39.6%

Structure (SMILES): Cc1ccc(-c2nc3ccc(C)cn3c2CN(C)C(=O)c2ccc3ccccc3n2)cc1 [Example 35, Quinoline-2-carboxylic acid methyl-(6-methyl-2-p-tolyl-imidazo[1,2-a]pyridin-3-ylmethyl)-amide]
- % Inhibition Motor Activity (mice): 33.19%
- % Inhibition 10^−5M (α2-GABAA receptor): 3.7%
- % Inhibition 10^−7M (α2-GABAA receptor): 0.0%
- % Inhibition 10^−5M (α1-GABAA receptor): 67.1%
- % Inhibition 10^−7M (α1-GABAA receptor): 31.8%

Structure (SMILES): C#CCN(Cc1c(-c2ccc(C)cc2)nc2ccc(C)cn12)C(=O)C1CC1 [Example 42, Cyclopropanecarboxylic acid (6-methyl-2-p-tolyl-imidazo[1,2-a]pyridin-3-ylmethyl)-prop-2-ynyl-amide]
- % Inhibition Motor Activity (mice): 40.35%
- % Inhibition 10^−5M (α2-GABAA receptor): 49.7%
- % Inhibition 10^−7M (α2-GABAA receptor): 0.0%
- % Inhibition 10^−5M (α1-GABAA receptor): 92.7%
- % Inhibition 10^−7M (α1-GABAA receptor): 12.4%

Structure (SMILES): Cc1ccc(-c2nc3ccc(C)cn3c2CNC(=O)C2CCC2)cc1 [Example 58, Cyclobutanecarboxylic acid (6-methyl-2-p-tolyl-imidazo[1,2-a]pyridin-3-ylmethyl)-amide]
- % Inhibition Motor Activity (mice): 94.25%
- % Inhibition 10^−5M (α2-GABAA receptor): 78.6%
- % Inhibition 10^−7M (α2-GABAA receptor): 9.2%
- % Inhibition 10^−5M (α1-GABAA receptor): 98.8%
- % Inhibition 10^−7M (α1-GABAA receptor): 6.5%

Structure (SMILES): Cc1ccc(-c2nc3ccc(C)cn3c2CNC(=O)c2cnc(C)cn2)cc1 [Example 61, 5-Methyl-pyrazine-2-carboxylic acid (6-methyl-2-p-tolyl-imidazo[1,2-a]pyridin-3-ylmethyl)-amide]
- % Inhibition Motor Activity (mice): 90.55%
- % Inhibition 10^−5M (α2-GABAA receptor): 98.5%
- % Inhibition 10^−7M (α2-GABAA receptor): 48.3%
- % Inhibition 10^−5M (α1-GABAA receptor): 100.0%
- % Inhibition 10^−7M (α1-GABAA receptor): 85.4%

Structure (SMILES): Cc1ccc(-c2nc3ccc(C)cn3c2CNC(=O)c2cccnc2)cc1 [Example 63, N-(6-Methyl-2-p-tolyl-imidazo[1,2-a]pyridin-3-ylmethyl)-nicotinamide]
- % Inhibition Motor Activity (mice): 74.86%
- % Inhibition 10^−5M (α2-GABAA receptor): 89.8%
- % Inhibition 10^−7M (α2-GABAA receptor): 13.4%
- % Inhibition 10^−5M (α1-GABAA receptor): 98.5%
- % Inhibition 10^−7M (α1-GABAA receptor): 36.1%

Structure (SMILES): Cc1ccc(-c2nc3ccc(C)cn3c2CNC(=O)C2=NNC(=O)CC2)cc1 [Example 65, 6-Oxo-1,4,5,6-tetrahydro-pyridazine-3-carboxylic acid (6-methyl-2-p-tolyl-imidazo[1,2-a]pyridin-3-ylmethyl)-amide]
- % Inhibition Motor Activity (mice): 85.22%
- % Inhibition 10^−5M (α2-GABAA receptor): 95.4%
- % Inhibition 10^−7M (α2-GABAA receptor): 39.1%
- % Inhibition 10^−5M (α1-GABAA receptor): 99.5%
- % Inhibition 10^−7M (α1-GABAA receptor): 83.9%

Structure (SMILES): Cc1ccc(-c2nc3ccc(C)cn3c2CNC(=O)c2cc(C)n(C)n2)cc1 [Example 67, 1,5-Dimethyl-1H-pyrazole-3-carboxylic acid (6-methyl-2-p-tolyl-imidazo[1,2-a]pyridin-3-ylmethyl)-amide]
- % Inhibition Motor Activity (mice): 78.09%
- % Inhibition 10^−5M (α2-GABAA receptor): 96.6%
- % Inhibition 10^−7M (α2-GABAA receptor): 47.3%
- % Inhibition 10^−5M (α1-GABAA receptor): 99.6%
- % Inhibition 10^−7M (α1-GABAA receptor): 84.7%

Structure (SMILES): Cc1ccc(-c2nc3ccc(C)cn3c2CNC(=O)c2csc(C)n2)cc1 [Example 69, 2-Methyl-thiazole-4-carboxylic acid (6-methyl-2-p-tolyl-imidazo[1,2-a]pyridin-3-ylmethyl)-amide]
- % Inhibition Motor Activity (mice): 78.41%
- % Inhibition 10^−5M (α2-GABAA receptor): 98.8%
- % Inhibition 10^−7M (α2-GABAA receptor): 74.1%
- % Inhibition 10^−5M (α1-GABAA receptor): 100.4%
- % Inhibition 10^−7M (α1-GABAA receptor): 93.4%

Structure (SMILES): Cc1ccc(-c2nc3ccc(C)cn3c2CNC(=O)c2csnn2)cc1 [Example 70, [1,2,3]Thiadiazole-4-carboxylic acid (6-methyl-2-p-tolyl-imidazo[1,2-a]pyridin-3-ylmethyl)-amide]
- % Inhibition Motor Activity (mice): 90.77%
- % Inhibition 10^−5M (α2-GABAA receptor): 97.7%
- % Inhibition 10^−7M (α2-GABAA receptor): 25.6%
- % Inhibition 10^−5M (α1-GABAA receptor): 100.4%
- % Inhibition 10^−7M (α1-GABAA receptor): 79.7%

Structure (SMILES): Cc1ccc(-c2nc3ccc(C)cn3c2CNC(=O)Cc2cccs2)cc1 [Example 71, N-(6-Methyl-2-p-tolyl-imidazo[1,2-a]pyridin-3-ylmethyl)-2-thiophen-2-yl-acetamide]
- % Inhibition Motor Activity (mice): 94.08%
- % Inhibition 10^−5M (α2-GABAA receptor): 67.8%
- % Inhibition 10^−7M (α2-GABAA receptor): 7.2%
- % Inhibition 10^−5M (α1-GABAA receptor): 96.4%
- % Inhibition 10^−7M (α1-GABAA receptor): 21.9%

Structure (SMILES): Cc1ccc(-c2nc3ccc(C)cn3c2CNC(=O)c2cc(C)on2)cc1 [Example 72, 5-Methyl-isoxazole-3-carboxylic acid (6-methyl-2-p-tolyl-imidazo[1,2-a]pyridin-3-ylmethyl)-amide]
- % Inhibition Motor Activity (mice): 73.81%
- % Inhibition 10^−5M (α2-GABAA receptor): 95%
- % Inhibition 10^−7M (α2-GABAA receptor): 33.1%
- % Inhibition 10^−5M (α1-GABAA receptor): 99.8%
- % Inhibition 10^−7M (α1-GABAA receptor): 73.4%

Structure (SMILES): Cc1ccc(-c2nc3ccc(C)cn3c2CNC(=O)c2cn(C)cn2)cc1 [Example 74, 1-Methyl-1H-imidazole-4-carboxylic acid (6-methyl-2-p-tolyl-imidazo[1,2-a]pyridin-3-ylmethyl)-amide]
- % Inhibition Motor Activity (mice): 77.37%
- % Inhibition 10^−5M (α2-GABAA receptor): 98.6%
- % Inhibition 10^−7M (α2-GABAA receptor): 63.0%
- % Inhibition 10^−5M (α1-GABAA receptor): 99.9%
- % Inhibition 10^−7M (α1-GABAA receptor): 95.3%

Structure (SMILES): Cc1ccc(-c2nc3ccc(C)cn3c2CNC(=O)c2nccn2C)cc1 [Example 78, 1-Methyl-1H-imidazole-2-carboxylic acid (6-methyl-2-p-tolyl-imidazo[1,2-a]pyridin-3-ylmethyl)-amide]
- % Inhibition Motor Activity (mice): 88.10%
- % Inhibition 10^−5M (α2-GABAA receptor): 98.8%
- % Inhibition 10^−7M (α2-GABAA receptor): 85.9%
- % Inhibition 10^−5M (α1-GABAA receptor): 100.2%
- % Inhibition 10^−7M (α1-GABAA receptor): 97.9%

Structure (SMILES): Cc1ccc(-c2nc3ccc(C)cn3c2CNC(=O)c2cscn2)cc1 [Example 81, Thiazole-4-carboxylic acid (6-methyl-2-p-tolyl-imidazo[1,2-a]pyridin-3-ylmethyl)-amide]
- % Inhibition Motor Activity (mice): 84.31%
- % Inhibition 10^−5M (α2-GABAA receptor): 94.3%
- % Inhibition 10^−7M (α2-GABAA receptor): 1.5%
- % Inhibition 10^−5M (α1-GABAA receptor): 99.6%
- % Inhibition 10^−7M (α1-GABAA receptor): 69.9%
